Test results as given in US12414932B2, “Arsinothricin and methods of treating infections using arsinothricin” (priority 2018, dated 2025).

System: Gram-negative and Gram-positive bacteria
Experiment: Bacterial resistance (growth inhibition) assay, environmental isolates
Assay type: cell-based
Conditions: M9 medium, 24 h; except B. gladioli GSRB05 and P. putida KT2440; PT as L-PT

In the case of CP(=O)(O)CCC(N)C(=O)O (racemic) [PT, phosphinothricin, reference compound], the “concentration inhibiting each species to the same degree” value is reported as 400 µM.
